Assay results from article PMC9396645 (Frontiers in Chemistry, 2022).
Read-outs that look alike come from different tables or passages of the source.

Key:
[1] = test system: C4-2 cells; test: Internalization efficiency / specific cell uptake in C4-2 cells; assay type: cell-based, human
Protocol: The specific internalization ratio was determinated in 24-well plates. The plates were previously coated with 0.1% poly-L-lysine in PBS for 20 min and washed with PBS once. C4-2 cells (10^5 cells per analysis) were added to each well and equilibrated overnight. The cells were incubated for 45 min with 250 µL of a 30 nM solution of the ^68Ga-labeled compounds either in a water bath at 37°C or on ice. The PSMA-receptor-blocking agent 2-(phosphonomethyl)pentanedioic acid (2-PMPA; 500 μM; Axxora) was used to verify the specificity of the cellular uptake of the novel compounds. The cells were washed thrice (using 1 ml of ice-cold PBS), followed by an incubation with 0.5 ml of a glycine solution (50 mM in HCl at a pH of 2.8) for 5 min, washed once with 1 ml of ice-cold PBS, and finally lysed with 0.5 ml of 0.3 M NaOH. The lysate was collected, and the radioactivity was measured in a gamma-counter. Triplicate measurements were performed for all experiments.

[2] = test system: C4-2 tumor bearing BALB/c nu/nu mice; test: Small-animal PET imaging in C4-2 tumor bearing mice; assay type: in vivo, mouse; details: mean SUV from PET, 2 h p.i.
Text: (§1) Athymic male nude mice (BALB/c nu/nu) were purchased from Charles River at 4‒5 weeks of age (19–23 g). The mice were kept under pathogen-free conditions for 1 week prior to the study. The mice had free access to water and food and were housed with a 12-h/12-h light/dark cycle. The xenografts required for positron emission tomography (PET) imaging and biodistribution studies were obtained by inoculation of 5 × 10^7 C4-2 cells in 50% Matrigel in Opti-MEM I (1 ×) medium. For this purpose, the mice were anesthetized with 2% sevoflurane, and inoculation was performed subcutaneously on the right trunk. When the size of the tumor was approximately 1 cm^3, the studies were performed.
For small-animal PET imaging, the different ^68Ga-labeled PSMA ligands (0.5 nmol, 20 MBq in approximately 100 µL 0.9% saline) were injected into C4-2 tumor bearing mice. The dynamic PET was recorded in a small animal PET scanner (Siemens Inveon D-PET). The standardized uptake values (SUVs) were obtained from conventional (non-dynamic) PET images. The formula for the SUV was SUV=activity in ROI (Bq/ml) × animal weight (g)/injected dose(Bq)
Manual delineation of the respective appropriate whole organ (heart, kidneys, bladder, tumor, with an approximate volume of 100–500 µL) yielded the volumes of interest (VOIs). For this purpose, whole organs or parts of the organ/tissue (liver and muscle) were used. The images were reconstructed based on the procedure: OSEM 3D/SP MAP with 16 subsets, two iterations, and an image x-y size: 256, image z size: 161. The data were not modified with a post-processing filter. Analysis of the images and time-activity curves (TACs) was conducted on the Inveon™ Acquisition Workplace (IAW) from Siemens IRW 4.1. […] […] The mean SUVs were plotted over time in order to compare the different radiotracers.

[3] = test system: C4-2 tumor bearing BALB/c nu/nu mice; test: Biodistribution (organ distribution) in C4-2 tumor-bearing mice; assay type: in vivo, mouse; details: tumor bearing mice, n = 3
Text: as §1
Based on the results of the PET imaging, ^68Ga-CA028 and ^68Ga-CA030, the most promising compounds, were chosen for biodistribution studies in C4-2 tumor-bearing mice. The labeled compound (0.05 nmol, 20 MBq) was administered to the mice via tail vein injection. Animals were sacrificed and organs were harvested at the following time points: 20 min, 1, 2, and 4 h p.i. The organs were dissected and weighed, the activity was measured with a γ-counter, and the % ID/g was calculated.

[4] = test system: prostate cancer patients; test: PSMA-PET/CT of prostate cancer patients; assay type: in vivo, human; details: patient PET/CT, 20 nmol
Protocol: Diagnostic PSMA-PET/computed tomography (CT) examinations were performed 1 and 3 h after antecubital injection of 339 MBq/20 nmol ^68Ga-CA028 or 295 MBq/20 nmol ^68Ga-CA030 per patient, respectively. The method for assessing the biodistribution was performed as previously described by Afshar-Oromieh et al. ([Afshar-Oromieh et al., 2015b]). Applying the clinical standard software Syngo (Siemens), which was used to define the VOIs in the PET images, the activity distributions of the source organs was determined. This reference ([Afshar-Oromieh et al., 2015b]) was also used as a standard of reference for ^68Ga-PSMA-617 (Table 3).

[5] = test system: prostate cancer patients; parameters: method as in earlier work; details: patients PET/CT, ref Afshar-Oromieh et al. (2015a) and Afshar-Oromieh et al. (2015b), cited from earlier work
[6] = ^68Ga-labeled compounds 30 nM, 45 min, 37°C, specificity by 2-PMPA 500 μM, mean ± SD (n = 3)

## O=C(O)CC[C@H](NC(=O)N[C@@H](CCCCNC(=O)[C@H](Cc1ccc2ccccc2c1)NC(=O)[C@H]1CC[C@H](CNC(=O)CN2CCN(CC(=O)O)CCN(CC(=O)O)CCN(CC(=O)O)CC2)CC1)C(=O)O)C(=O)O [PSMA-617, reference compound]
[1]; Table 2
  specific internalization in C4-2 cells: 15.6 % ID/10^6 cells
[1]; [6]
  Specific cell surface: 45.18 ± 3.61 %IA/10^6cells
  Specific lysate (internalization): 15.55 ± 3.07 %IA/10^6 cells

## O=C([O-])CN1CCN(CC(=O)[O-])CCN(C(CCC(=O)NCc2ccc(NC(=S)NCC3CCC(C(=O)NC(Cc4ccc5ccccc5c4)C(=O)NCCCCC(NC(=O)NC(CCC(=O)O)C(=O)O)C(=O)O)CC3)cc2)C(=O)O)CCN(CC(=O)[O-])CC1.[68Ga+3] (stereo not shown) [^68Ga-CA029]
[1]; [6]
  Specific lysate (internalization): 44.3 ± 3.9 %IA/10^6 cells
[2]
  tumor-to-kidney ratio: 0.52

## O=C([O-])CN1CCN(CC(=O)[O-])CCN(CC(=O)O)C(Cc2ccc(NC(=S)NCC3CCC(C(=O)NC(Cc4ccc5ccccc5c4)C(=O)NCCCCC(NC(=O)NC(CCC(=O)O)C(=O)O)C(=O)O)CC3)cc2)CN(CC(=O)[O-])CC1.[68Ga+3] (stereo not shown) [^68Ga-CA030]
[1]; [6]
  Specific lysate (internalization): 53.8 ± 5.4 %IA/10^6 cells
[3]; 20 min
  Organ distribution Blood: 4.33 ± 0.51 % ID/g
  Organ distribution Brain: 0.08 ± 0.01 % ID/g
  Organ distribution Heart: 1.29 ± 0.30 % ID/g
  Organ distribution Kidneys: 63.89 ± 5.72 % ID/g
  Organ distribution Liver: 1.04 ± 0.18 % ID/g
  Organ distribution Lung: 2.63 ± 0.89 % ID/g
  Organ distribution Muscle: 1.39 ± 1.30 % ID/g
  Organ distribution Small intestine: 1.00 ± 0.38 % ID/g
  Organ distribution Spleen: 8.37 ± 0.47 % ID/g
  Organ distribution Tumor: 5.17 ± 1.48 % ID/g
[3]; 1 h
  Organ distribution Blood: 3.59 ± 1.52 % ID/g
  Organ distribution Brain: 0.08 ± 0.02 % ID/g
  Organ distribution Heart: 1.03 ± 0.36 % ID/g
  Organ distribution Kidneys: 46.39 ± 23.44 % ID/g
  Organ distribution Liver: 1.52 ± 0.61 % ID/g
  Organ distribution Lung: 2.74 ± 0.72 % ID/g
  Organ distribution Muscle: 0.63 ± 0.21 % ID/g
  Organ distribution Small intestine: 0.92 ± 0.37 % ID/g
  Organ distribution Spleen: 2.86 ± 1.86 % ID/g
  Organ distribution Tumor: 5.36 ± 2.21 % ID/g
[3]; 2 h
  Organ distribution Blood: 1.42 ± 0.61 % ID/g
  Organ distribution Brain: 0.04 ± 0.02 % ID/g
  Organ distribution Heart: 0.40 ± 0.09 % ID/g
  Organ distribution Kidneys: 20.19 ± 7.92 % ID/g
  Organ distribution Liver: 0.81 ± 0.15 % ID/g
  Organ distribution Lung: 1.08 ± 0.42 % ID/g
  Organ distribution Muscle: 0.28 ± 0.03 % ID/g
  Organ distribution Small intestine: 0.75 ± 0.06 % ID/g
  Organ distribution Spleen: 1.39 ± 0.47 % ID/g
  Organ distribution Tumor: 4.31 ± 0.30 % ID/g
[3]; 4 h
  Organ distribution Blood: 0.39 ± 0.14 % ID/g
  Organ distribution Brain: 0.01 ± 0.00 % ID/g
  Organ distribution Heart: 0.16 ± 0.05 % ID/g
  Organ distribution Kidneys: 6.17 ± 0.82 % ID/g
  Organ distribution Liver: 0.50 ± 0.14 % ID/g
  Organ distribution Lung: 0.34 ± 0.10 % ID/g
  Organ distribution Muscle: 0.17 ± 0.02 % ID/g
  Organ distribution Small intestine: 0.21 ± 0.09 % ID/g
  Organ distribution Spleen: 0.48 ± 0.09 % ID/g
  Organ distribution Tumor: 2.69 ± 0.88 % ID/g
[2]
  tumor-to-kidney ratio: 0.33
[4]; first listed bone metastasis, 1 h p.i.
  SUV mean Bone metastasis: 27.2
[4]; first listed bone metastasis, 3 h p.i.
  SUV mean Bone metastasis: 37.7
[4]; 1 h p.i.
  SUV mean Blood pool, mediastinal: 5.6
  SUV mean Colon: 4.9
  SUV mean Gluteal muscle: 0.8
  SUV mean Kidneys: 13.4
  SUV mean Lacrimal gland: 7.1
  SUV mean Liver: 5.8
  SUV mean Nasal mucosa: 3.3
  SUV mean Parotid gland: 6.1
  SUV mean Proximal small intestine: 4.1
  SUV mean Spleen: 7.2
  SUV mean Sublingual gland: 4.1
  SUV mean Submandibular gland: 8.7
[4]; 3 h p.i.
  SUV mean Blood pool, mediastinal: 4.5
  SUV mean Colon: 4.7
  SUV mean Gluteal muscle: 0.7
  SUV mean Kidneys: 16.5
  SUV mean Lacrimal gland: 9.0
  SUV mean Liver: 5.9
  SUV mean Nasal mucosa: 3.8
  SUV mean Parotid gland: 6.7
  SUV mean Proximal small intestine: 5.0
  SUV mean Spleen: 6.1
  SUV mean Sublingual gland: 4.9
  SUV mean Submandibular gland: 11.3
[4]; second listed bone metastasis, 1 h p.i.
  SUV mean Bone metastasis: 30.9
[4]; second listed bone metastasis, 3 h p.i.
  SUV mean Bone metastasis: 32.6
[4]; third listed bone metastasis, 1 h p.i.
  SUV mean Bone metastasis: 31.0
[4]; third listed bone metastasis, 3 h p.i.
  SUV mean Bone metastasis: 33.1

## O=C([O-])CN1CCN(CC(=O)[O-])CCN(CC(=O)NCC2CCC(C(=O)NC(Cc3ccc4ccccc4c3)C(=O)NCCCCC(NC(=O)NC(CCC(=O)O)C(=O)O)C(=O)O)CC2)CCN(CC(=O)[O-])CC1.[68Ga+3] (stereo not shown) [^68Ga-PSMA-617]
[1]; [6]
  Specific lysate (internalization): 15.5 ± 3.1 %IA/10^6 cells
[5]; 1 h p.i.
  SUV mean Blood pool, mediastinal: 2.5
  SUV mean Bone metastasis: 9.4
  SUV mean Colon: 3.5
  SUV mean Gluteal muscle: 0.7
  SUV mean Kidneys: 15.6
  SUV mean Lacrimal gland: 4.9
  SUV mean Liver: 3.3
  SUV mean Lymph node: 7.1
  SUV mean Nasal mucosa: 2.9
  SUV mean Parotid gland: 10.4
  SUV mean Proximal small intestine: 4.7
  SUV mean Spleen: 4.3
  SUV mean Sublingual gland: 4.6
  SUV mean Submandibular gland: 10
[5]; 3 h p.i.
  SUV mean Blood pool, mediastinal: 2.4
  SUV mean Bone metastasis: 6.3
  SUV mean Colon: 4.0
  SUV mean Gluteal muscle: 0.7
  SUV mean Kidneys: 17.0
  SUV mean Lacrimal gland: 5.9
  SUV mean Liver: 2.7
  SUV mean Lymph node: 13.5
  SUV mean Nasal mucosa: 3.4
  SUV mean Parotid gland: 13.1
  SUV mean Proximal small intestine: 5.5
  SUV mean Spleen: 3.5
  SUV mean Sublingual gland: 4.0
  SUV mean Submandibular gland: 12.4
